This is an account of results in US8716480B2, “7-aryl-1,2,4-triazolo[4,3-a]pyridine derivatives and their use as positive allosteric modulators of mGluR2 receptors” (Janssen Pharmaceuticals, Inc., priority 2009, dated 2014).

The target in one series is T1, human mGluR2 receptor (Homo sapiens, UniProt Q14416).
T1 construct: expressed in transfected cells; host or cells: CHO cells (membranes)
Put plainly: [35S]GTPγS binding assay (PAM). The format is biochemical. To be noted: in presence of glutamate at predetermined EC20, membranes from CHO cells transfected with human mGluR2; for EC50: read-out: GTPγS -hR2 PAM pEC50 (converted). The method, then:
[^35S]GTPγS binding assay
The [^35S]GTPγS binding assay is a functional membrane-based assay used to study G-protein coupled receptor (GPCR) function whereby incorporation of a non-hydrolysable form of GTP, [^35S]GTPγS (guanosine 5′-triphosphate, labelled with […] ^35S), is measured.
CHO-cells were cultured to pre-confluence and stimulated with 5 mM butyrate for 24 h, prior to washing in PBS, and then collected by scraping in homogenisation buffer (50 mM Tris-HCl buffer, pH 7.4, 4° C.). Cell lysates were homogenized briefly using an ultra-turrax homogenizer. The homogenate was centrifuged at 16,000 RPM (Sorvall RC-5C plus rotor SS-34) for 10 minutes and the supernatant discarded. The pellet was resuspended in 5 mM Tris-HCl, pH 7.4 and centrifuged again (18,000 RPM, 20 min, 4° C.). The final pellet was resuspended in 50 mM Tris-HCl, pH 7.4 and stored at −80° C. in appropriate aliquots before use. Protein concentration was determined by the Bradford method (Bio-Rad, USA) with bovine serum albumin as standard.
Measurement of mGluR2 positive allosteric modulatory activity of test compounds was performed as follows. Test compounds and glutamate were diluted in assay buffer containing 10 mM HEPES acid, 10 mM HEPES salt, pH 7.4, 100 mM NaCl, 3 mM MgCl2 and 10 μM GDP. Human mGlu2 receptor-containing membranes were thawed on ice and diluted in assay buffer supplemented with 14 μg/ml saponin. Membranes were pre-incubated with compound alone or together with a predefined (˜EC20) concentration of glutamate (PAM assay) for 30 min at 30° C. After addition of [^35S]GTPγS (f.c. 0.1 nM) microplates were shaken briefly and further incubated to allow [^35S]GTPγS incorporation on activation (30 minutes, 30° C.). Final assay mixtures contained 7 μg of membrane protein in 10 mM HEPES acid, 10 mM HEPES salt, pH 7.4, 100 mM NaCl, 3 mM MgCl2, 10 μM GDP and 10 μg/ml saponin. Total reaction volume was […] Reactions were terminated by rapid filtration through Unifilter-96 GF/B filter plates (Packard, Meriden, Conn.) using a 96-well Packard filtermate harvester. Filters were washed 6 times with ice-cold 10 mM NaH2PO4/10 mM Na2HPO4, pH 7.4. Filters were then air-dried, and 40 μl of liquid scintillation cocktail (Microscint-O) was added to each well. Membrane-bound radioactivity was counted in a Microplate Scintillation and Luminescence Counter from Packard.
obtained in the presence of EC20 of mGluR2 agonist glutamate to determine positive allosteric modulation (PAM)—were generated using the Lexis software interface (developed at J&J). Data were calculated as % of the control glutamate response, defined as the maximal response that is generated upon addition of glutamate alone. Sigmoid concentration-response curves plotting these percentages versus the log concentration of the test compound were analyzed using non-linear regression analysis. The concentration producing half-maximal effect is then calculated as EC50.
All compounds were tested in presence of mGluR2 agonist, glutamate at a predetermined EC20 concentration, to determine positive allosteric modulation (GTPγS-PAM). pEC50 values were calculated from a concentration-response experiment of at least 10 concentrations.

The subject of a further series is male NMRI mice. Put plainly: Phencyclidine (PCP)-induced hyperlocomotion in mice. To be noted: for ED50: Mus musculus; for ED50 PCP-Inh. (estimated): estimated ED50 (n = 3 per dose; 4-fold separation between doses). In kind it is in vivo. As for the experimental part:
On the day of experiments, the mice were brought into the procedural room. They were housed individually and allowed to acclimate for at least a half hour prior to testing. Although the studies were conducted during the light cycle (from 8:00 to 16:00 h), the procedure room was only sparsely lit (3 to 30 LUX) to provide better contrast for the video tracking. Local lighting was used for the injection procedures. During each trial, an individual mouse was placed in an open field arena (grey PVC cylinder with a height of 40 cm and a diameter of 22.5 cm). Each arena was placed on an infrared LED (8×8 LEDs)-lit box (white PVC squared box; 40×40 cm^2; height 12.5 cm). Each mouse was placed in the center of the arena and allowed to explore freely for 30 min. After each trial, the arena was cleaned with a wet and subsequently with a dry cleaning cloth. An infrared sensitive tube camera and a white light source (in arena: 4-7 LUX) were mounted to the ceiling above the observation chamber to record and input activity to a computer. Animal behavior was recorded and analyzed using the Noldus Ethovision XT Video Tracking System (Version 3.1; Noldus, Wageningen, The Netherlands). The total distance traveled (cm) was calculated. Data were then exported to data management systems for further analysis and reporting.
Test compound or solvent was administered at a pre-defined time before measurement (standard: 30 min) to male NMRI mice that were challenged with phencyclidine (PCP; 5 mg/kg, s.c.) 30 min before measurement. Activity was measured for a period of 30 min.

The subject of a further series is male Wiga Wistar rats. Put plainly: Conditioned avoidance response (CAR) test. The following applies: for ED50: Rattus norvegicus, po. In kind it is in vivo. The source says:
The apparatus consisted of an inner box surrounded by an outer box. The inner box was composed of four walls of transparent, synthetic material (length×width×height: 30×30×30 cm), an open top, and a grid floor made of 15 pairs of iron bars (2 mm diameter; 6 mm inter-bar distance). Odd and even bars were connected with a source of alternative current (1.0 mA; Coulbourn Instruments Solid State Shocker/Distributor), which could be interrupted by a switch. The outer box was composed of the same material (length×width×height: 40×40×36 cm), also with an open top, with a distance of 5 cm between the inner and outer box on all sides. To decrease the amount of environmental stimuli, three walls of the outer box were made non-transparent. The front wall was left transparent to allow the necessary inspection of the animal during the test. The upper edge of the outer and inner box served as a target for the rats on which to jump with fore- and hind-paws, respectively.
From their arrival in the laboratory on the experimental day, male Wiga Wistar rats (230±30 g) were housed in individual cages provided with bedding material.
Latency to avoidance was recorded. The median avoidance response obtained over the three experimental sessions for each rat were used for further calculations.

The next series relates to Male mice (C57BL/6). Description: Reversal of memantine-induced brain activation ([14C]2DG uptake) in mice. In kind it is in vivo. To be noted: for L.A.D. (lowest active dose) for significant (p<0.05) reduction of 2DG uptake in the hippocampus compared to memantine response: mice, s.c., memantine 20 mg/kg s.c. As for the experimental part: Reversal of Memantine-Induced Brain Activation in Mice NMDA receptor hypofunction is hypothesized to be involved in schizophrenia.
Autoradiographic assessment of radiolabeled [^14C]-2-deoxyglucose ([^14C]2DG) uptake is commonly used to investigate brain activation. In humans, cerebral blood flow is increased in specific brain regions after administration of a subanaesthetic dose of ketamine.
Male mice (C57BL/6, weight 24-28 g, fasted overnight; n=10 animals per group) were treated with vehicle or test compound (s.c.) in randomized order (t=0 min). Memantine (20 mg/kg, s.c.) was injected 30 min later (t=30 min). At t=45 min, [^14C]2DG (0.16 μCi/g) was administered intraperitoneally (i.p.), followed by a 45 min uptake period. Animals were decapitated (t=90 min), plasma glucose levels measured, the brain removed, rapidly frozen and stored at −20° C. until sectioned. Brain sections were exposed together to a precalibrated [^14C]standard on film, which was developed after four days of exposure. Local tissue [^14C]concentration (nCi/mg tissue equivalent—TEQ-) in each region of interest was determined.
Data was analyzed statistically using a two-way ANOVA analysis followed by post-hoc tests (memantine response versus reversal by the compound). The results are shown in table 5 below, expressed as lowest active dose (L.A.D.) required to exert a statistically significant (p<0.05) reduction of 2DG uptake in the hippocampus compared to memantine response.

The mark [1] stands for this setting: mice, PCP 5 mg/kg s.c., criterion total distance <5500 counts, not marked as oral, read-out: ED50 PCP-Inh.
Setting [2] is: compound administered orally, criterion median avoidance latency >8 s, read-out: ED50 CAR-Inh.
The mark [3] stands for this setting: sc, read-out: ED50 PCP-Inh. (estimated).
The mark [4] stands for this setting: compound administered orally, criterion median avoidance latency >8 s.

Read-outs that look alike come from different tables or passages of the source. Marks after values point to notes of the source that are not given here.

T1 sequence (Q14416 19-872): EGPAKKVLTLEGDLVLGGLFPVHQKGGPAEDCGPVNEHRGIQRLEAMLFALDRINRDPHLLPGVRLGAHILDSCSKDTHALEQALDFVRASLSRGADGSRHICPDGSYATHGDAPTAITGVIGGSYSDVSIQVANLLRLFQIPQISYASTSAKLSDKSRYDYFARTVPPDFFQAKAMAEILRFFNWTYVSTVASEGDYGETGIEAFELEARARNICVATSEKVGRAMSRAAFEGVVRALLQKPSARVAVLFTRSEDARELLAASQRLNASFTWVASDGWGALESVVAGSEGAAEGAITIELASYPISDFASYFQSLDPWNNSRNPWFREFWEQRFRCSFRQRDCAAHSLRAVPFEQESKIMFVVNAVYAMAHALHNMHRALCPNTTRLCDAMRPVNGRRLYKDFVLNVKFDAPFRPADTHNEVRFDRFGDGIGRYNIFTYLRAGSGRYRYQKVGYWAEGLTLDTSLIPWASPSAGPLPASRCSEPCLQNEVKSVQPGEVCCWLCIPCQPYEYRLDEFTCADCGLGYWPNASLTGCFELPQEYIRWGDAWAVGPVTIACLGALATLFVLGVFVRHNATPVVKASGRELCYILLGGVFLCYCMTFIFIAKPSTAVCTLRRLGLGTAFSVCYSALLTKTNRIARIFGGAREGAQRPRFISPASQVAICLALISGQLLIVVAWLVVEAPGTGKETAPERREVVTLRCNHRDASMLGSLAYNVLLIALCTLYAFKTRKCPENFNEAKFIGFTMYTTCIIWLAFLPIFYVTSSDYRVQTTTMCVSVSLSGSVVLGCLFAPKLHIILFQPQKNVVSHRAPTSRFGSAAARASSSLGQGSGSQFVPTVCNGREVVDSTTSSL

`Cc1ccc(Oc2ccc(-c3ccn4c(CC(F)(F)F)nnc4c3Cl)cc2F)c(C)n1` [Co. No. 3, 7-[3-Fluoro-4-(2′,6′-dimethyl-pyridin-3-yloxy)-phenyl]-8-chloro-3-(2,2,2-trifluoro-ethyl)-1,2,4-triazolo[4,3-a]pyridine] came in with a melting point of 164.5 °C. Moreover, the EC50 on human mGluR2 receptor is 45.7 nM. Also, the ED50 in the series with male NMRI mice (setting [1]) is 16.2 mg/kg. Moreover, in the series on male Wiga Wistar rats (setting [2]), the ED50 is 24.6 mg/kg. Besides, the ED50 in the series with male Wiga Wistar rats (not marked as oral, criterion median avoidance latency >8 s, read-out: ED50 CAR-Inh.) came to 18.6 mg/kg.

Consider `Cc1ccc(Oc2ccc(-c3ccn4c(CC5CC5)nnc4c3C(F)(F)F)cc2F)c(C)n1` [Co. No. 4], for which, at human mGluR2 receptor, the EC50 was 10.2 nM. Also, the ED50 in the series with male NMRI mice (setting [1]) is 15.2 mg/kg; in the series on male Wiga Wistar rats (compound administered orally, estimated ED50 (n = 3 per dose; 4-fold separation between doses), read-out: ED50 CAR-Inh. (estimated)), 20 mg/kg; with male Wiga Wistar rats (not marked as oral, estimated ED50 (n = 3 per dose; 4-fold separation between doses), read-out: ED50 CAR-Inh. (estimated)), 7.9 mg/kg. Also, in the series with Male mice (C57BL/6), the “L.A.D. (lowest active dose) for significant (p<0.05) reduction of 2DG uptake in the hippocampus compared to memantine response” value was “≦10 mg/kg”.

Take `FC(F)(F)Cc1nnc2c(Cl)c(-c3ccc(OC4CCOCC4)c(Cl)c3)ccn12` [Co. No. 7, 7-(3-Chloro-4-pyranyl-4-oxy-phenyl)-8-chloro-3-(2,2,2-trifluoro-ethyl)-1,2,4-triazolo[4,3-a]pyridine]: the melting point amounted to 186.7 °C. Besides, the EC50 on human mGluR2 receptor was 174 nM. Further, the ED50 with male NMRI mice (setting [1]) worked out at 10 mg/kg.

The molecule `Cc1ccc(Oc2ccc(-c3ccn4c(CC5CC5)nnc4c3Cl)cc2F)c(C)n1` [Co. No. 14, 8-Chloro-3-cyclopropylmethyl-7-{4-[(2,6-dimethylpyridin-3-yl)oxy]-3-fluorophenyl}[1,2,4]triazolo[4,3-a]pyridine] yielded a melting point of 207.2 °C. At human mGluR2 receptor, the EC50 is 42.7 nM. For the same molecule, the ED50 in the series on male NMRI mice (setting [1]) is 18 mg/kg. The ED50 in the series on male Wiga Wistar rats (setting [2]) came out at 24.6 mg/kg.

Molecule `CCOCc1nnc2c(C)c(-c3ccc(Oc4ccc(C)nc4C)c(F)c3)ccn12` [Co. No. 42, 8-Methyl-3-ethoxymethyl-7-{3-fluoro-4-[(2,6-dimethylpyridin-3-yl)oxy]phenyl}[1,2,4]triazolo[4,3-a]pyridine] gave a melting point of 144 °C. For the same molecule, the EC50 at human mGluR2 receptor is 170 nM. Moreover, the ED50 in the series with male NMRI mice (setting [3]) was 20 mg/kg. Besides, in the series with Male mice (C57BL/6), the “L.A.D. (lowest active dose) for significant (p<0.05) reduction of 2DG uptake in the hippocampus compared to memantine response” value is reported as 5 mg/kg.

As to `Fc1cc(-c2ccn3c(CC4CC4)nnc3c2C(F)(F)F)ccc1Oc1ccnc(C2CC2)c1` [Co. No. 46, 3-Cyclopropylmethyl-7-[4-(2-cyclopropyl-pyridin-4-yloxy)-3-fluoro-phenyl]-8-trifluoromethyl-[1,2,4]triazolo[4,3-a]pyridine], the melting point was 211.1 °C. Further, the EC50 at human mGluR2 receptor is 17.8 nM. For the same molecule, the ED50 with male NMRI mice (setting [3]) is 20 mg/kg. The “L.A.D. (lowest active dose) for significant (p<0.05) reduction of 2DG uptake in the hippocampus compared to memantine response” value with Male mice (C57BL/6) is reported as “≦10 mg/kg”.

Take `CCc1cc(Oc2ccc(-c3ccn4c(CC5CC5)nnc4c3Cl)cc2F)ccn1` [Co. No. 48, 3-Cyclopropylmethyl-7-[4-(2-ethyl-pyridin-4-yloxy)-3-fluoro-phenyl]-8-chloro-[1,2,4]triazolo[4,3-a]pyridine]: the melting point was > 300 °C. At human mGluR2 receptor, the EC50 was 145 nM. In addition, in the series with male NMRI mice (setting [3]), the 50% effective dose (ED50) is 12.6 mg/kg. Further, the “L.A.D. (lowest active dose) for significant (p<0.05) reduction of 2DG uptake in the hippocampus compared to memantine response” value with Male mice (C57BL/6) is recorded as “≦10 mg/kg”.

For the molecule `FC(F)(F)c1c(-c2ccc(Oc3ccnc(C4CC4)c3)c(Cl)c2)ccn2c(CC3CC3)nnc12` [Co. No. 54], the “GTPγS -hR2 PAM pEC50” value at human mGluR2 receptor is on record as 8.38. Also, in the series on male Wiga Wistar rats (setting [4]), the “ED50 CAR-Inh.” value is recorded as >40* mg/kg.

For `COc1ccc(CNc2ccc(-c3ccn4c(CC5CC5)nnc4c3C(F)(F)F)cc2)cn1` [Co. No. 58], the “GTPγS -hR2 PAM pEC50” value at human mGluR2 receptor was determined as 7.90. The “ED50 CAR-Inh.” value in the series with male Wiga Wistar rats (setting [4]) is on record as “≧40*^ mg/kg”.

Consider `Fc1cnccc1Oc1ccc(-c2ccn3c(CC4CC4)nnc3c2C(F)(F)F)cc1` [Co. No. 63], for which the “GTPγS -hR2 PAM pEC50” value at human mGluR2 receptor is 7.03. In the series on male NMRI mice (mice, PCP 5 mg/kg s.c.), the “ED50 PCP-Inh. (estimated)” value is on record as 1.58^a) mg/kg.

Turning to `FC(F)(F)c1c(-c2ccc(N3CCNCC3)c(Cl)c2)ccn2c(CC3CC3)nnc12` [Co. No. 73], on human mGluR2 receptor, the “GTPγS -hR2 PAM pEC50” value is 6.59. Moreover, the “ED50 PCP-Inh. (estimated)” value in the series with male NMRI mice (mice, PCP 5 mg/kg s.c.) is 12.6^a) mg/kg.

With `O=C(CCCN1CCC(O)(c2ccc(Cl)cc2)CC1)c1ccc(F)cc1` [haloperidol, reference compound], the “effect on memantine-induced brain glucose metabolism / 2DG uptake (in words)” value with Male mice (C57BL/6) (mouse brain) was “inactive”.
